# Experimental data: patent publication US9932637B2, “Genetic polymorphisms associated with cardiovascular disorders and drug response, methods of detection and uses thereof” (CELERA CORPORATION, priority 2003, dated 2018)
# Test system: patients with prior myocardial infarction (CARE study)
# Assay: CARE: association of SNPs with pravastatin treatment in cardiovascular events prevention (logistic regression, odds ratio pravastatin vs placebo by genotype; Table 8)
# Type: in vivo, human
# Details: for Definite Nonfatal MI, n/total (%) / Fatal CHD/Definite Nonfatal MI, n/total (%): CD6 hCV25922320, All Patients; for Fatal/Nonfatal MI (def & prob), n/total (%) / MI (Fatal/Nonfatal), n/total (%) / Nonfatal MI (def & prob), n/total (%): COL11A1 hCV8400671, All Patients
# Description: In order to identify genetic markers associated with acute coronary events (e.g. MI, stroke, unstable angina, congestive heart failure, etc.) or response to statin treatment for the prevention of coronary events, samples from the Cholesterol and Recurrent Events (CARE) study (a randomized multicentral double-blinded trial on secondary prevention of acute coronary events with pravastatin) (Sacks et al., 1991, Am. J. Cardiol. 68: 1436-1446) were genotyped. A well-documented myocardial infarction (MI) was one of the enrollment criteria for entry into the CARE study. Patients were enrolled in the CARE trial from 80 participating study centers. […] Patients were randomized to receive either 40 mg of pravastatin once daily or a matching placebo. The primary endpoint of the trial was death from coronary heart disease and the median duration of follow-up was 5.0 years (range, 4.0 to 6.2 years). […] Secondary endpoints of other related cardiovascular or metabolic disease events, and changes in clinical variables were also recorded in pravastatin-treated and placebo groups. All individuals included in the study had signed a written informed consent form and the study protocol was approved by the respective Institutional Review Boards (IRBs).
# For genotyping SNPs in CARE patient samples, DNA was extracted from blood samples using conventional DNA extraction methods such as the QIA-amp kit from Qiagen. Genotypes were obtained on an ABI PRISM® 7900HT Sequence Detection PCR system (Applied Biosystems, Foster City, Calif.) by kinetic allele-specific PCR, similar to the method described by Germer et al. (Germer S., Holland M. J., Higuchi R. 2000, Genome Res. 10: 258-266).
# Statistical analysis for association of SNPs with pravastatin treatment in cardiovascular events prevention (Table 8) was carried out using an overall logistic regression model that included an intercept, a parameter for the effect of a genotype containing two rare alleles versus a genotype containing no rare alleles, a parameter for the effect of a genotype containing one rare allele versus a genotype containing no rare alleles, a parameter for the effect of use of pravastatin versus the use of placebo, and parameters for the interaction effects between SNP genotypes and pravastatin use. The test of the overall model is a chi-square test with two degrees of freedom for analyses containing all three genotypes, and one degree of freedom for analyses containing two genotypes.
# Effect sizes were estimated through odds ratios (pravastatin group versus placebo) for carriers of each genotype (groups of 0, 1, and 2 minor allele carriers). The effect was considered to be significant if p-value for testing whether any of the interactions between SNP genotypes and pravastatin use were <0.05. […] Odds ratios less than one indicate that the specific SNP allele has a protective effect and odds ratios greater than one indicate that the specific SNP allele has an adverse effect.
# [1] = CCL11 hCV7449808, All Patients, 2 Rare Alleles, Prava, n/total 9/34
# [2] = CCL11 hCV7449808, All Patients, Fatal/Non-fatal Atherosclerotic CV Disease
# [3] = CCL11 hCV7449808, All Patients, Hosp. for Cardiovascular Disease
# [4] = CCL11 hCV7449808, All Patients, Total Cardiovascular Disease Events
# [5] = CCL11 hCV7449808, All Patients, Total Coronary Heart Disease Events
# [6] = CD6 hCV2553030, All Patients, 0 Rare Alleles, Prava arm
# [7] = CD6 hCV2553030, All Patients, 1 Rare Allele, Prava arm
# [8] = CD6 hCV2553030, All Patients, 2 Rare Alleles, Prava arm
# [9] = CHUK hCV1345898, All Patients, Hosp. for Unstable Angina
# [10] = CHUK hCV1345898, All Patients, Non-fatal MI (def & prob)
structure (smiles),measurement,setting,value
CC[C@H](C)C(=O)O[C@H]1C[C@H](O)C=C2C=C[C@H](C)[C@H](CC[C@@H](O)C[C@@H](O)CC(=O)O)[C@H]21 [pravastatin],"Total Coronary Heart Disease Events, n/total (%)","CCL11 hCV7449808, All Patients, 2 Rare Alleles, Prava, n/total 4/34",(11.8%)
same,"Fatal/Non-fatal Atherosclerotic CV Disease, n/total (%)","CCL11 hCV7449808, All Patients, 2 Rare Alleles, Prava, n/total 7/34",(20.6%)
same,"Hosp. for Cardiovascular Disease, n/total (%)",[1],(26.5%)
same,"Total Cardiovascular Disease Events, n/total (%)",[1],(26.5%)
same,"Prava vs. Placebo Odds Ratio, 0 Rare Alleles",[2],0.80
same,"Prava vs. Placebo Odds Ratio, 1 Rare Alleles",[2],0.82
same,"Prava vs. Placebo Odds Ratio, 2 Rare Alleles",[2],0.21
same,"Prava vs. Placebo Odds Ratio, 0 Rare Alleles",[3],0.76
same,"Prava vs. Placebo Odds Ratio, 1 Rare Alleles",[3],0.91
same,"Prava vs. Placebo Odds Ratio, 2 Rare Alleles",[3],0.16
same,"Prava vs. Placebo Odds Ratio, 0 Rare Alleles",[4],0.77
same,"Prava vs. Placebo Odds Ratio, 1 Rare Alleles",[4],0.88
same,"Prava vs. Placebo Odds Ratio, 2 Rare Alleles",[4],0.14
same,"Prava vs. Placebo Odds Ratio, 0 Rare Alleles",[5],0.80
same,"Prava vs. Placebo Odds Ratio, 1 Rare Alleles",[5],0.84
same,"Prava vs. Placebo Odds Ratio, 2 Rare Alleles",[5],0.16
same,"Hosp. for Cardiovascular Disease, n/total (%)",[6],(41.5%)
same,"Total Cardiovascular Disease Events, n/total (%)",[6],(43.2%)
same,"Hosp. for Cardiovascular Disease, n/total (%)",[7],(39.9%)
same,"Total Cardiovascular Disease Events, n/total (%)",[7],(40.3%)
same,"Hosp. for Cardiovascular Disease, n/total (%)",[8],(31.3%)
same,"Total Cardiovascular Disease Events, n/total (%)",[8],(33.0%)
same,Odds ratio pravastatin vs placebo,"CD6 hCV2553030, All Patients, Hosp. for Cardiovascular Disease, 0 rare alleles",0.81
same,Odds ratio pravastatin vs placebo,"CD6 hCV2553030, All Patients, Hosp. for Cardiovascular Disease, 1 rare allele",0.78
same,Odds ratio pravastatin vs placebo,"CD6 hCV2553030, All Patients, Hosp. for Cardiovascular Disease, 2 rare alleles",0.37
same,Odds ratio pravastatin vs placebo,"CD6 hCV2553030, All Patients, Total Cardiovascular Disease Events, 0 rare alleles",0.83
same,Odds ratio pravastatin vs placebo,"CD6 hCV2553030, All Patients, Total Cardiovascular Disease Events, 1 rare allele",0.74
same,Odds ratio pravastatin vs placebo,"CD6 hCV2553030, All Patients, Total Cardiovascular Disease Events, 2 rare alleles",0.38
same,"Definite Nonfatal MI, n/total (%)","0 Rare Alleles, Prava arm",(5.7%)
same,"Fatal CHD/Definite Nonfatal MI, n/total (%)","0 Rare Alleles, Prava arm",(7.7%)
same,"Definite Nonfatal MI, n/total (%)","1 Rare Allele, Prava arm",(9.2%)
same,"Fatal CHD/Definite Nonfatal MI, n/total (%)","1 Rare Allele, Prava arm",(12.3%)
same,"Definite Nonfatal MI, n/total (%)","2 Rare Alleles, Prava arm",(4.8%)
same,"Fatal CHD/Definite Nonfatal MI, n/total (%)","2 Rare Alleles, Prava arm",(9.7%)
same,Odds ratio pravastatin vs placebo,"CD6 hCV25922320, All Patients, Definite Nonfatal MI, 0 rare alleles",0.52
same,Odds ratio pravastatin vs placebo,"CD6 hCV25922320, All Patients, Definite Nonfatal MI, 1 rare allele",1.12
same,Odds ratio pravastatin vs placebo,"CD6 hCV25922320, All Patients, Definite Nonfatal MI, 2 rare alleles",0.63
same,Odds ratio pravastatin vs placebo,"CD6 hCV25922320, All Patients, Fatal CHD/Definite Nonfatal MI, 2 rare alleles",0.92
same,"Non-fatal MI (def & prob), n/total (%)","CHUK hCV1345898, All Patients, 0 Rare Alleles, Prava, n/total 47/413",(11.4%)
same,"Hosp. for Unstable Angina, n/total (%)","CHUK hCV1345898, All Patients, 0 Rare Alleles, Prava, n/total 68/413",(16.5%)
same,"Non-fatal MI (def & prob), n/total (%)","CHUK hCV1345898, All Patients, 1 Rare Allele, Prava, n/total 69/734",(9.4%)
same,"Hosp. for Unstable Angina, n/total (%)","CHUK hCV1345898, All Patients, 1 Rare Allele, Prava, n/total 110/734",(15.0%)
same,"Non-fatal MI (def & prob), n/total (%)","CHUK hCV1345898, All Patients, 2 Rare Alleles, Prava, n/total 17/354",(4.8%)
same,"Hosp. for Unstable Angina, n/total (%)","CHUK hCV1345898, All Patients, 2 Rare Alleles, Prava, n/total 51/354",(14.4%)
same,"Prava vs. Placebo Odds Ratio, 0 Rare Alleles",[9],1.38
same,"Prava vs. Placebo Odds Ratio, 1 Rare Alleles",[9],0.76
same,"Prava vs. Placebo Odds Ratio, 2 Rare Alleles",[9],0.59
same,"Prava vs. Placebo Odds Ratio, 0 Rare Alleles",[10],0.86
same,"Prava vs. Placebo Odds Ratio, 1 Rare Alleles",[10],0.77
same,"Prava vs. Placebo Odds Ratio, 2 Rare Alleles",[10],0.34
same,"Fatal/Nonfatal MI (def & prob), n/total (%)","0 Rare Alleles, Prava arm",(10.6%)
same,"MI (Fatal/Nonfatal), n/total (%)","0 Rare Alleles, Prava arm",(10.7%)
same,"Nonfatal MI (def & prob), n/total (%)","0 Rare Alleles, Prava arm",(9.6%)
same,"Fatal/Nonfatal MI (def & prob), n/total (%)","1 Rare Allele, Prava arm",(8.2%)
same,"MI (Fatal/Nonfatal), n/total (%)","1 Rare Allele, Prava arm",(8.6%)
same,"Nonfatal MI (def & prob), n/total (%)","1 Rare Allele, Prava arm",(7.7%)
same,"Fatal/Nonfatal MI (def & prob), n/total (%)","2 Rare Alleles, Prava arm",(4.1%)
same,"MI (Fatal/Nonfatal), n/total (%)","2 Rare Alleles, Prava arm",(4.1%)
